The values below come from US7312205B2, “Methods and compositions for inhibiting tumor growth” (Novelix Pharmaceuticals, Inc., priority 2003, dated 2007).

The test system of test [1] is melanoma cell line 518A2. As to the kind of experiment: Growth inhibition in melanoma cell line 518A2 (cell survival vs untreated controls). It counts as cell-based. The source says:
(§1) Examples 1 and 2 show direct comparisons between comparative compound A (betulic acid) and a novel derivative (compound B) in paired growth assays (cell count decrease after 3 days after a single application of the indicated concentrations of the respective compounds on day 1).
Comparison of compound (A) (betulic acid) with compound (B) (protected betulic acid trisester)—Growth inhibition in melanoma cell line 518A2 (obtained from Peter Schrier, Leiden, The Netherlands) […]. The X-axis indicates the concentration in μg/ml of compounds A and B, respectively, the Y-axis gives the cell survival rate in percent of the untreated controls.
Comparison of the effects of different betulic acid derivatives according to the invention and of the comparative compound (betulic acid), respectively, on various melanoma-sarcoma lines. The data each refer to cell survival rates in percent (mean values) as against untreated cell cultures.
Survival in percent as with all other data after 3 days of cell culture after a single application on day 1

Test [2] has as its system liposarcoma line (ATCC HTB-92). As to the kind of experiment: Growth inhibition in liposarcoma line ATCC HTB-92 (cell survival vs untreated controls). It counts as cell-based.
Text: as §1
Comparison of the efficacy of comparative compound (A) (betulic acid) with that of compound (B) (protected betulic acid trisester) in a liposarcoma line (ATCC HTB-92). The X-axis indicates the concentration in μg/ml of compounds A and B, respectively, the Y-axis gives the cell survival rate in percent of the untreated controls. […]

Setting [3] is: liposarcoma ATCC HTB-92, 0.3 μg/ml.
Where [4] appears, read: liposarcoma ATCC HTB-92, 0.6 μg/ml.
Setting [5] is: liposarcoma ATCC HTB-92, 1 μg/ml.
The mark [6] stands for this setting: liposarcoma ATCC HTB-92, 1.25 μg/ml.
Where [7] appears, read: liposarcoma ATCC HTB-92, 2.5 μg/ml.
The mark [8] stands for this setting: liposarcoma ATCC HTB-92, 5 μg/ml.
The mark [9] stands for this setting: liposarcoma ATCC HTB-92, 10 μg/ml.

With `C=C(C)[C@@H]1CC[C@]2(C(=O)OCC(N)(CO)CO)CC[C@]3(C)[C@H](CC[C@@H]4[C@@]5(C)CC[C@H](OC(C)=O)C(C)(C)[C@@H]5CC[C@]43C)[C@@H]12` [Compound B, Acetyl betulic acid-2-amino-3-hydroxy-2-hydroxymethyl propyl ester], the “Survival in % melanoma” value in test [1] (Test #1: stock 50 mg/ml in EtOH, 1.0 μg/ml, 3 days) is listed as 50%; in test [1] (Test #1: stock 50 mg/ml in EtOH, 2.0 μg/ml, 3 days) it was 0.5%; in test [1] (Test #1: stock 50 mg/ml in EtOH, 3.0 μg/ml, 3 days) it was 0.0%; in test [1] (Test #1: stock 50 mg/ml in EtOH, 4.0 μg/ml, 3 days), 0.0%; in test [1] (Test #2: inclusion compound, 5.9 mg/ml in 266 mg/ml HBC in H2O, 1.0 μg/ml, 3 days), 65%; in test [1] (Test #2: inclusion compound, 5.9 mg/ml in 266 mg/ml HBC in H2O, 2.0 μg/ml, 3 days) it was 25%. Moreover, the “Survival in % melanoma” value is listed as 0.0% in test [1] (Test #2: inclusion compound, 5.9 mg/ml in 266 mg/ml HBC in H2O, 3.0 μg/ml, 3 days); 0.0% in test [1] (Test #2: inclusion compound, 5.9 mg/ml in 266 mg/ml HBC in H2O, 4.0 μg/ml, 3 days); 77% in test [1] (Test #3: inclusion compound, 20 mg/ml in 266 mg/ml HBC in 50% EtOH/50% H2O, 1.0 μg/ml, 3 days); 24% in test [1] (Test #3: inclusion compound, 20 mg/ml in 266 mg/ml HBC in 50% EtOH/50% H2O, 2.0 μg/ml, 3 days); 0.0% in test [1] (Test #3: inclusion compound, 20 mg/ml in 266 mg/ml HBC in 50% EtOH/50% H2O, 3.0 μg/ml, 3 days); 0.0% in test [1] (Test #3: inclusion compound, 20 mg/ml in 266 mg/ml HBC in 50% EtOH/50% H2O, 4.0 μg/ml, 3 days). Moreover, the “Survival in % melanoma” value amounted to 59% in test [1] (Test #4: inclusion compound, 25 mg/ml in 200 mg/ml HGC in 50% EtOH/50% H2O, 1.0 μg/ml, 3 days); 4% in test [1] (Test #4: inclusion compound, 25 mg/ml in 200 mg/ml HGC in 50% EtOH/50% H2O, 2.0 μg/ml, 3 days); 0.0% in test [1] (Test #4: inclusion compound, 25 mg/ml in 200 mg/ml HGC in 50% EtOH/50% H2O, 3.0 μg/ml, 3 days). Moreover, the survival in % in test [1] (melanoma 518A2, 0.3 μg/ml) is on record as 83.0%; in test [1] (melanoma 518A2, 0.6 μg/ml) it was 56.3%; in test [1] (melanoma 518A2, 1 μg/ml) it was 11.3%; in test [1] (melanoma 518A2, 1.25 μg/ml), 10.3%; in test [1] (melanoma 518A2, 2.5 μg/ml), 2.8%; in test [1] (melanoma 518A2, 5 μg/ml) it was 0.0%. For the same compound, the survival in % in test [1] (melanoma 518A2, 10 μg/ml) is listed as 0.0%; in test [2] (setting [3]), 89.5%; in test [2] (setting [4]), 70.7%; in test [2] (setting [5]), 12.0%; in test [2] (setting [6]), 2.9%; in test [2] (setting [7]), 3.0%. For the same compound, the survival in % in test [2] (setting [8]) and in test [2] (setting [9]) was 0.0% each time. For the same compound, in test [1] (melanoma cell line 518A2, from ED50), the “activity relative to comparative compound (A)” value is “up to 7 times”.
Consider `C=C(C)[C@@H]1CC[C@]2(C(=O)O)CC[C@]3(C)[C@H](CC[C@@H]4[C@@]5(C)CC[C@H](O)C(C)(C)[C@@H]5CC[C@]43C)[C@@H]12` [A, betulic acid, reference compound], for which the survival in % in test [2] (setting [3]) was found to be 98.0%; in test [2] (setting [4]) it was 92.8%; in test [2] (setting [5]), 92.3%; in test [2] (setting [6]), 79.5%; in test [2] (setting [7]) it was 49.3%; in test [2] (setting [8]) it was 20.8%. Also, the survival in % in test [2] (setting [9]) is 15.7%.
Turning to `C=C(C)[C@@H]1CC[C@]2(C(=O)NC(CO)(CO)CO)CC[C@]3(C)[C@H](CC[C@@H]4[C@@]5(C)CC[C@H](OC(C)=O)C(C)(C)[C@@H]5CC[C@]43C)[C@@H]12` [Compound C, Acetyl betulic acid-N-(1,1-bis(hydroxymethyl)-2-hydroxyethyl)formamide], the “Survival in % melanoma” value came to 96% in test [1] (melanoma 518A2, 0.25 μg/ml) and 93% in test [1] (melanoma 518A2, 0.5 μg/ml). Further, the survival in % in test [1] (melanoma 518A2, 1 μg/ml) is 67.5%; in test [2] (setting [3]), 96%; in test [2] (setting [4]) it was 82%; in test [2] (setting [5]) it was 81%.
